In this assay the test system is rats with chronic lead poisoning. In words: Chronic rat lead poisoning model, administration for treatment. It is filed as in vivo. The method, then: After the model was successfully established, the lead was stopped and the rates were fed with distilled water from the 31st day. […] The rats in the positive medicine group were given a dose of 10 mg/kg of sodium dimercaptosuccinate by intragastric administration, and all the intragastric subjects were given in equal volume twice a day for 30 days. On the 60th day, blood samples were collected. Brain, liver and femur samples were collected and stored in liquid nitrogen for later use. After wet digestion, the blood samples and tissues of each group were tested for content of lead by inductively coupled plasma mass spectrometry (ICP-MS), and the lead-removing rates were counted.
All the data were processed by SPSS 20.0 statistical software. Every group of measurement data was expressed by mean±[…] (mean±SD), and all of which were tested for homogeneity of variance by Levene method first. If the variances were homogeneous, single factor analysis of variance was used among multiple groups, and two-sample T test was used between two groups. If the hypothesis of parameter test was unreasonable, Kruskal-Wallis test was used among multiple groups, while Wilcoxon test was used between two groups. p<0.05 or p<0.01 was statistically significant.
40 male SD rats were randomly divided into five groups including a normal group, a model group, a positive medicine group (sodium dimercaptosuccinate group), a high-dose magaldrate group and a low-dose magaldrate group according to their body weights, and each group included 8 rats. Except the rats in the normal group were given ultrapure water, the rats in the model group, the positive medicine group, and the magaldrate groups of each dose drank 0.5% lead acetate ultrapure water solution for 30 days, resulting in chronic lead-exposed models. After the model was successfully established, the lead was stopped and the rates were fed with distilled water from the 31st day. The rats in the normal group were given an equal volume of 0.5% CMC-Na solution by intragastric administration, while the rats in the high-dose magaldrate group and the low-dose magaldrate group were given a high dose of 0.6 g/kg and a low dose of 0.3 g/kg respectively by intragastric administration. The rats in the positive medicine group were given a dose of 10 mg/kg of sodium dimercaptosuccinate by intragastric administration, and all the intragastric subjects were given in equal volume twice a day for 30 days. On the 60th day, blood samples were collected. Brain, liver and femur samples were collected and stored in liquid nitrogen for later use. After wet digestion, the blood samples and tissues of each group were tested for content of lead by inductively coupled plasma mass spectrometry (ICP-MS), and the lead-removing rates were counted. […]

[1] abbreviates: 60th day, positive medicine 0.01 g/kg intragastric twice a day for 30 days, mean ± SD.

Values joined by “and” are separate entries in the source; they are usually repeats but may differ in a detail not shown here. Equal entries are not always repeated.

Consider `O=C([O-])C(S)C(S)C(=O)[O-].[Na+].[Na+]` (stereo not shown) [Sodium dimercaptosuccinate, sodium dimercaptosuccinate], for which, under setting [1], the “Content of lead in blood” value is 0.058 ± 0.01 µg/g and 0.069 ± 0.01 µg/g and 0.059 ± 0.01 µg/g and 0.073 ± 0.01 µg/g; the “Content of lead in brain” value is 0.129 ± 0.03 µg/g and 0.218 ± 0.04 µg/g and 0.178 ± 0.04 µg/g and 0.165 ± 0.05 µg/g; the “Femur content of lead” value is 32.085 ± 4.73 µg/g and 35.006 ± 3.92 µg/g and 28.075 ± 3.25 µg/g and 33.478 ± 4.86 µg/g. For the same molecule, the “Removing rate, lead in bones” value (positive medicine group 10 mg/kg, versus model group) stood at 0.00%.

(Values after patent US20220031736A1, “USE OF ANIONIC CLAY IN PREPARING LEAD-REMOVING MEDICINE” (priority 2019, published 2022).)
